The values below come from patent US11771660B2, “Flavonoid polyphenol drug self-emulsifying composition, preparation method therefor, pharmaceutical composition thereof and application thereof” (priority 2019, dated 2023).

Data set [1] in a line: Plasma pharmacokinetics after gavage in rats. The class given is in vivo, Sprague-Dawley rats. Particulars: gavage 40 mg/kg. The method, then:
Test group B: The self-emulsifying composition of baicalein encapsulating baicalein ingredient in Comparative Example 1 (hereinafter labeled OBA-SMEDDS) was administered.
Test group C: Baicalein ingredient (hereinafter labeled BA) was administered.
Sprague-Dawley rats (male, 200 g) were fed for one week before tests, forbidden to eat rather than drink the night before the tests, and supplied with water freely during the tests.
15 rats were randomly divided into three groups (test group A, test group B and test group C, separately), with 5 rats in each group. Gavage (2-3 mL) was provided at a dose of 40 mg/kg. 0.3 mL of blood was taken from the retro-orbital venous plexus at 5, 15, 30, 45, 60 and 75 min and 3, 6, 8, 10, 12 and 24 h after administration, placed in a pre-heparinized 1.5 mL conical centrifuge tube, and centrifuged at 4000 r/min for 15 min. The upper plasma was aspirated, stored in the refrigerator at −80° C., and thawed at normal temperature before determination.
Treatment of plasma samples: 100 μL of plasma was taken, placed in a 1.5 mL conical centrifuge tube, added with 10 μL of ascorbic acid (200 mg/mL), 20 μL of an internal standard solution (500 ng/ml) and 300 μL of methanol, vortexed for 60 s, and centrifuged at 12000 r/min for 10 min. Then, the supernatant was aspirated, placed in a centrifuge tube, concentrated through centrifugation to remove the solvent (40° C.), added with 200 μL of methanol:water (80:20) to be dissolved, vortexed for 30 s, and centrifuged at 12000 r/min for 5 min. 20 μL of the supernatant was injected and the plasma concentration was determined under the following chromatography conditions (liquid chromatography-mass spectrometry).
Chromatography column: Agilent ZORBAX SB C18 column (250 mm×4.6 mm, […]);
Column temperature: 25° C.;
Mobile phase (gradient elution, see Table 11): acetonitrile-0.1% formic acid as an eluent.
Electrospray ion source (ESI), positive ion mode, multiple reaction monitoring (MRM);
Other parameters: an atomizer pressure of 40 psi, a drying gas flowrate of 9 L/min, a drying gas temperature of 350° C., a capillary voltage of 4000V and a split ratio of 1:2.
MRM detection ion pair for quantification: baicalin [M+H]+ 447.0→271.1;

Data set [2] can be described thus: Saturated solubility in oil phase and blank self-emulsifying concentrate. The class given is physicochemical. The note with it: room temperature 24 hours. The protocol: They were placed at room temperature for 24 hours to observe whether the drug was precipitated. If no drug was precipitated, an appropriate amount of each phospholipid complex was added and operated in the same manner until the drug was precipitated. The supernatant was taken and centrifuged at 12000 r/min for 20 min. Then, the supernatant was taken and the saturated solubility of each flavonoid polyphenol drug-phospholipid complex in the oil phase and the blank self-emulsifying concentrate was determined by the preceding HPLC method.

[3] abbreviates: male, Sprague-Dawley, rat, po, baicalein in plasma.

Take `O=c1cc(-c2ccccc2)oc2cc(O)c(O)c(O)c12` [BA, baicalein]: in data set [1] (baicalein in plasma), the “AUC (0-t)” value amounted to 15864.8 µg·min/L and the “AUC (0-∞)” value was found to be 15880.4 µg·min/L. In data set [1] (setting [3]), the peak concentration (Cmax) was 99.1 ± 42 ng/mL and the Tmax is 1.25 h. For the same molecule, the MRT last in data set [1] (male, Sprague-Dawley, rat, po, baicalein in plasma, read-out: MRT (0-t) (converted)) is 4 h. The MRT inf in data set [1] (male, Sprague-Dawley, rat, po, baicalein in plasma, read-out: MRT (0-∞) (converted)) was 4.01 h. This molecule had a bioavailability in data set [1] (male, Sprague-Dawley, rat, po, relative to baicalein ingredient, based on baicalein in plasma) of 100%. Moreover, the “saturated solubility in the blank self-emulsifying concentrate (drug load of the self-emulsifying composition)” value in data set [2] (ethyl oleate:labraosol:transcutol HP 2:5:3) came out at 20 mg/g. Besides, the “saturated solubility in oil” value in data set [2] (oil phase ethyl oleate) is listed as 0.3 mg/g.
